Consider nine compounds from paper PMC4601772, “Investigating Apoptozole as a Chemical Probe for HSP70 Inhibition” (PLoS ONE, 2015).

Broadly, the IC50 is the concentration needed to halve the response being measured. By pIC50 is commonly meant −log10 of the IC50, conventionally taken in molar units. A low value points to a large IC50. In general, Kd refers to the equilibrium constant for the complex coming apart. For orientation: GI50 means the concentration at which growth is held to half of that of the control. Broadly, the pKD is the KD on a negative log10 scale, so that one unit is a factor of ten. Lower therefore signals a high KD.

In data set [1] the target is T1, human HSP72 (Homo sapiens, UniProt P0DMV8).
T1 construct: 6xHis (N); human rhinovirus 3C protease cleavage site (N); made in house; host or cells: E. coli BL21-AI
Kind of data set: Fluorescence polarisation competitive binding with ATP-FAM probe. The note with it: for IC50: displacement of ATP-FAM (10 nM) from human HSP72, geometric mean of 3; for pIC50: displacement of ATP-FAM from human HSP72, geometric mean ± SEM, 3 measurements. The protocol: (§1) Unless otherwise stated the aqueous assay buffer contained 50 mM TRIS base pH 7.4, 150 mM NaCl, 6 mM MgCl2, 1 mM DTT, 0.1% (wt/wt) CHAPS. The assay was conducted using 384 Plus F ProxiPlates (PerkinElmer) with a final assay volume of 10 μL. Plates were centrifuged at 1000 rpm for 1 minute prior to incubation and read using an 2103 Envision Multilable Plate Reader. Excitation and emission wavelengths used for green probes were 480 nm and 535 nm, respectively. Excitation and emission wavelengths used for red probes were 620 nm and 688 nm, respectively. Fluorescence polarisation was measured in units of millipolarization (mP). All experiments were performed in triplicate, except for experiments with ATP-Cy5 and apoptozole-Cy5, which were performed in duplicate. Data were plotted and analyzed using GraphPad Prism 6, graphical data represents the geometric mean ± standard error of the mean for a single representative experiment.
Compounds (0.2 μL at 50 x screening concentration in DMSO) were dispensed using an ECHO 550 Liquid Handler (labcyte Inc.). To the corresponding wells was added, 5 μL of probe molecule (20 nM in assay buffer) and 5 μL of protein (two times their final concentration in assay buffer) to give a 50% bound fraction.[30] Tracer controls (10 nM probe molecule only) and bound tracer controls (10 nM probe in the presence of appropriate protein concentration) were included on each assay plate. IC50 determination was performed using non-linear least squares curve fitting (GraphPad Prism 6, log(inhibitor) vs. response—variable slope (four parameters)).
(In general: Fluorescence polarisation rises when a labelled molecule tumbles more slowly, as on binding a larger partner.)

Data set [2] is described as follows: Dynamic light scattering (aggregation under aqueous conditions). The format is physicochemical. The protocol:
Apoptozole and VER-155008 (10 mM in DMSO) were diluted in 1 x PBS buffer with a final DMSO concentration of 2%, ± 0.01% v/v Triton X-100. Measurements were performed using a Protein Solutions DynaPro (Wyatt Technology) at room temperature. Data were acquired and processed by the software Dynamics, version 6.10 and calculation of particle radius performed by the cumulant analysis tool. The detector angle was 90°, the laser power was set to 30% and the integration time was 150 s. Each radius value presents three independent measurements, values are quotes as arithmetic mean ± standard error of the mean.

Data set [3] deals with T2, rat HSP72 (Rattus norvegicus, UniProt P0DMW0).
T2 construct: purchased Enzo Life Sciences
Also noted: method as in PMID 18729127. The conditions noted are these: SPR; cited from earlier work.

The next data set concerns the target bovine HSC70. Further details: method as in PMID 18729127. The conditions noted are these: SPR; cited from earlier work.
For another data set, the system named is SK-OV-3. Further details: method as in PMID 18729127. The conditions noted are these: cited from earlier work.
For another data set, the system named is HCT-15. Also noted: method as in PMID 18729127. The note with it: cited from earlier work.
Another data set has as its system A549. Also noted: method as in PMID 18729127. The note with it: cited from earlier work.
Data set [4] deals with T1, human HSP72. Kind of data set: SPR Procedure A, biotinylated apoptozole 4 on neutravidin chip, human HSP72. It counts as binding. The note with it: human HSP72 31–500 nM, control subtracted. The protocol:
(§2) SPR analysis was performed on a Biacore T200 (GE Healthcare) at 25°C at a flow rate of 30 μL/min. The running buffer contained 1 x PBS and was prepared from 10 x concentrated PBS (GE Healthcare) on the day of use. Series S Sensor Chip CM5 was purchased from GE Healthcare, stored at […] and brought to room temperature prior to use.
(§3) The sensor chip was activated by injection of a 1:1 mixture of 500 mM NHS and 200 mM EDC for 420 seconds. Neutravidin (50 μg/mL in 10 mM sodium acetate buffer, pH 5.5) was injected across the chip surface for 60 seconds, followed by injection of 1 mM ethanolamine (pH 8.5) for 420 seconds. Biotinylated-apoptozole 4 (100 μM in 1:1 DMSO/PBS) was injected over the chip surface for 420 seconds. Human and rat HSP72 (500 nM in PBS) were injected at concentrations of 31–500 nM, injection time: 60 seconds, dissociation time: 60 seconds. The control lane was subjected to the conditions described above but derivatization with biotinylated apoptozole 4 was omitted.

In data set [5] the target is T2, rat HSP72. Kind of data set: SPR Procedure A, biotinylated apoptozole 4 on neutravidin chip, rat HSP72. It counts as binding. The conditions noted are these: rat HSP72 31–500 nM, control subtracted. The protocol: as §2, §3
The target in data set [6] is T1, human HSP72. Kind of data set: SPR Procedure B, apoptozole derivative 6 bound directly to CM5 chip. The conditions noted are these: three immobilisation levels, HSP72 up to 32 μM. The format is binding. The protocol: as §2
The sensor chip was activated by injection of a 1:1 mixture of 500 mM NHS and 200 mM EDC for 420 seconds. Apoptozole derivative 6 (100 μM in 1:1 DMSO/PBS) was injected over the chip surface, to give immobilization levels of approximately 4000, 8000 and 12000 RU. Ethanolamine (1 mM, pH 8.5) was then injected over the chip surface for 420 seconds. Human HSP72 (32 μM in PBS) was injected at concentrations of 62 nM–32 μM, injection time: 60 seconds, dissociation time: 60 seconds. The control lane was subjected to the conditions described above but derivatization with apoptozole derivative 6 was omitted.

Data set [7] addresses T1, human HSP72. Put plainly: Fluorescence polarisation KD determination of probes, HSP72. It counts as binding. The note with it: for pKD: human HSP72, geometric mean ± SEM, 3 measurements; for Kd: human HSP72 titrated against fixed probe concentration, geometric mean of 3. The protocol:
as §1
(§4) To each well, 5 μL of probe molecule (20 nM in assay buffer) and increasing concentrations of HSP70 protein (5 μL, two-fold dilution series) were added. Fluorescence polarisation values for tracer control wells (10 nM probe in assay buffer only) were subtracted from each data point prior to data analysis. KD determination was performed using non-linear regression analysis (GraphPad Prism 6, one site–specific binding model).

The next data set addresses T3, human HSC70 (Homo sapiens, UniProt P11142).
T3 construct: purchased Abcam
Kind of data set: Fluorescence polarisation KD determination of probes, HSC70. The format is binding. The conditions noted are these: single determination. The protocol: as §1, §4

The subject of another data set is HSP70. Also noted: method as in PMID 24265689. The note with it: cited from earlier work.
Setting [8] is: 10 μM, without Triton X-100, PBS 2% DMSO.

T1 sequence (P0DMV8 whole entry): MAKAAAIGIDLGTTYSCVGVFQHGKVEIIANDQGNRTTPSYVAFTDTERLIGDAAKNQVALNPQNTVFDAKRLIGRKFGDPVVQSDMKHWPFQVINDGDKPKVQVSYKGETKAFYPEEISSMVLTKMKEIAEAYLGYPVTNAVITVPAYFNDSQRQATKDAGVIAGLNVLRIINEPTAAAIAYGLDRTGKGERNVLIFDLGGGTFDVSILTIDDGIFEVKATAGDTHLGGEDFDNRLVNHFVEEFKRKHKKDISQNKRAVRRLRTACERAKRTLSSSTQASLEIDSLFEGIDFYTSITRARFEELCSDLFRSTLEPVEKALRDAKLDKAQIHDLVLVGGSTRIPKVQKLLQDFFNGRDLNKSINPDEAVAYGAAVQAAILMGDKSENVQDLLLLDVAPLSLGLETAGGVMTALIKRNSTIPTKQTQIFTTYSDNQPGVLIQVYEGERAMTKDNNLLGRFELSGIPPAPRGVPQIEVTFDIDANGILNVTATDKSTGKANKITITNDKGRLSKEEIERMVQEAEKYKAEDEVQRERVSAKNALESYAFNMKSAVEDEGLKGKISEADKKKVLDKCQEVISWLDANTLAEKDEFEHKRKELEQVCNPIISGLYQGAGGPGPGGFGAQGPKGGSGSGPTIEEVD
T2 sequence (P0DMW0 2-641 limits assumed): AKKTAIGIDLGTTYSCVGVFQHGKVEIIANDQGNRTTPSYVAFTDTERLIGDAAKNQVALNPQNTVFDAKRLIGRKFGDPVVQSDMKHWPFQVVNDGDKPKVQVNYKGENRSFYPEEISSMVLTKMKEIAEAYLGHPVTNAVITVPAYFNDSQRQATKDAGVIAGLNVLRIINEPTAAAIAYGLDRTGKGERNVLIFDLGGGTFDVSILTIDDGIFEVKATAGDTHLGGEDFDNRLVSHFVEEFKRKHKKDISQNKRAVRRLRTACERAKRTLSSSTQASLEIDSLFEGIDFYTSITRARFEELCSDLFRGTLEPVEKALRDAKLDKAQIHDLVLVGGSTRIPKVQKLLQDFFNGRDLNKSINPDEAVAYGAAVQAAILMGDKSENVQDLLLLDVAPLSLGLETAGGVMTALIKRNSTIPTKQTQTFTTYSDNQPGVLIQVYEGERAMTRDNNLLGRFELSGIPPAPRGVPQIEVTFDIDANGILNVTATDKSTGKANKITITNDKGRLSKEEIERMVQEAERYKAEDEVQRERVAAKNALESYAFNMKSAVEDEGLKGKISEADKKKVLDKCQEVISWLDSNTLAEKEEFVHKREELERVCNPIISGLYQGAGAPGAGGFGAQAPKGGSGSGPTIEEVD
T3 sequence (P11142 whole entry): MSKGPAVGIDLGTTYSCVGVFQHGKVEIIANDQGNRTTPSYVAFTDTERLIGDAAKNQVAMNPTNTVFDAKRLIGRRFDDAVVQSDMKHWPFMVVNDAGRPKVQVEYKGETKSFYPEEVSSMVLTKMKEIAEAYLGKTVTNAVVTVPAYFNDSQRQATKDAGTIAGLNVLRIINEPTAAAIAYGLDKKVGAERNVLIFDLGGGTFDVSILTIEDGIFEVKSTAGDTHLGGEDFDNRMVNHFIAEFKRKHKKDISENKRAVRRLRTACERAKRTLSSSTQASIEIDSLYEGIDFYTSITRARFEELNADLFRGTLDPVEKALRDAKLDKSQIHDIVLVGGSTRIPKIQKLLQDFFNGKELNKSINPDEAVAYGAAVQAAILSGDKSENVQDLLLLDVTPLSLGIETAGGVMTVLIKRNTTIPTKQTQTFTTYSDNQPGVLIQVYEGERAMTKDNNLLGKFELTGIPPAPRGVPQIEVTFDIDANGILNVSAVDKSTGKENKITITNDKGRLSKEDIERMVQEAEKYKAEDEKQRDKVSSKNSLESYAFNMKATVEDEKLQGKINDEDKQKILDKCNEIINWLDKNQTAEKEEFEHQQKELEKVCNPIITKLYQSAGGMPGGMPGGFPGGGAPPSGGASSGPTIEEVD

Regarding `Nc1ncnc2c1ncn2[C@@H]1O[C@H](COP(=O)(O)OP(=O)(O)O)[C@@H](O)[C@H]1O` [ADP], at human HSP72 [1], the IC50 amounted to 0.67 µM and the pIC50 was 6.17 ± 0.11.
Regarding `Nc1ncnc2c1ncn2[C@@H]1O[C@H](COP(=O)(O)OP(=O)(O)OP(=O)(O)O)[C@@H](O)[C@H]1O` [ATP], at human HSP72 [1], the half-inhibitory concentration (IC50) was determined as 1.2 µM and the pIC50 was found to be 5.94 ± 0.05.
On human HSP72 [1], `N#Cc1ccc(COC[C@H]2O[C@@H](n3c(NCc4ccc(Cl)c(Cl)c4)nc4c(N)ncnc43)[C@H](O)[C@@H]2O)cc1` [VER-155008] registered an IC50 of 0.49 µM and a pIC50 of 6.31 ± 0.06. Moreover, the Aggregate formation entry in data set [2] (10 μM) was “no evidence of aggregate formation”. In data set [2] (10 μM, with 0.01% Triton X-100), this compound registered an Intensity of 318.2 ± 61.3 kcps and a Radius of 101.1 ± 9.0 nm. Also, the Intensity in data set [2] (10 μM, without Triton X-100) was 63.2 ± 5.8 kcps. Besides, the Radius in data set [2] (setting [8]) was 88.5 ± 8.3 nm.
For `COc1ccc(-c2nc(-c3cc(C(F)(F)F)cc(C(F)(F)F)c3)n(Cc3ccc(C(N)=O)cc3)c2-c2ccc(OC)cc2)cc1` [apoptozole], at human HSP72 [1] (concentrations up to 80 μM), the “ATP-competitive binding (displacement of ATP-FAM probe)” value is listed as “no displacement of the ATP-FAM probe observed”. Further, the Intensity was 132.6 ± 39.7 kcps in data set [2] (1 μM, without Triton X-100); 1047.5 ± 183.1 kcps in data set [2] (5 μM, without Triton X-100); 2350.0 ± 173.1 kcps in [2] (10 μM, with 0.01% Triton X-100); 1441.1 ± 186.5 kcps in data set [2] (10 μM, without Triton X-100). Further, the Radius came out at 89.3 ± 5.8 nm in [2] (1 μM, without Triton X-100); 454.4 ± 36.4 nm in [2] (5 μM, without Triton X-100); 86.5 ± 2.1 nm in data set [2] (10 μM, with 0.01% Triton X-100); 521.5 ± 30.9 nm in data set [2] (setting [8]). Further, in data set [2] (aqueous conditions), the “Concentration at which large colloidal aggregates form” value is no less than 5 µM. The compound also came in with a Particle radius in [2] (concentrations ≥ 5 μM, without detergent) greater than 450 nm. The Kd at rat HSP72 [3] was 0.14 µM; on bovine HSC70, 0.21 µM. The GI50 is 0.22 µM with SK-OV-3, 0.25 µM with HCT-15 and 0.13 µM in the data set with A549.
Take `COc1ccc(-c2nc(-c3cc(C(F)(F)F)cc(C(F)(F)F)c3)n(Cc3ccc(C(=O)NCCOCCOCCNC(=O)CCC(=O)NCCOCCOCCNC(=O)CCCC[C@@H]4SC[C@@H]5NC(=O)N[C@@H]54)cc3)c2-c2ccc(OC)cc2)cc1` [compound 4, N^1-(2-(2-(2-(4-((2-(3,5-Bis(trifluoromethyl)phenyl)-4,5-bis(4-methoxyphenyl)-1H-imidazol-1-yl)methyl)benzamido)ethoxy)ethoxy)ethyl)-N^4-(2-(2-(2-(5-((3aS,4S,6aR)-2-oxohexahydro-1H-thieno[3,4-d]imidazol-4-yl)pentanamido)ethoxy)ethoxy)ethyl)succinamide]: the “Binding interaction (SPR)” value on human HSP72 [4] and on rat HSP72 [5] was “no evidence of binding interactions” each time.
`COc1ccc(-c2nc(-c3cc(C(F)(F)F)cc(C(F)(F)F)c3)n(Cc3ccc(C(=O)NCCOCCOCCNC(=O)CCC(=O)NCCOCCOCCN)cc3)c2-c2ccc(OC)cc2)cc1` [compound 6, N^1-(2-(2-(2-Aminoethoxy)ethoxy)ethyl)-N^4-(2-(2-(2-(4-((2-(3,5-bis(trifluoromethyl)phenyl)-4,5-bis(4-methoxyphenyl)-1H-imidazol-1-yl)methyl)benzamido)ethoxy)ethoxy)ethyl)succinamide]: the “Binding interaction (SPR)” value on human HSP72 [6] is reported as “no binding interactions were observed”.
Compound N^6-(6-Amino)hexyl-ATP-6-FAM [ATP-FAM] showed a pKD on human HSP72 [7] of 6.50 ± 0.04. Besides, the Kd came out at 0.32 µM at human HSP72 [7] and 0.97 µM at human HSC70.
On human HSP72 [7], N^6-(6-Amino)hexyl-ATP-Cy5 came in with a pKD of 5.95 ± 0.02 and a Kd of 1.1 µM.
For the compound pifithrin-μ, the “Mode of binding to HSP70” value with HSP70 was “unspecific, detergent-like way”.
